Values quoted from earlier work in publication PMC2866165 (Nuclear medicine and biology, 2010).

How the values were obtained:
PDE4D = conditions: read-out: IC50 for PDE4D
PDE3A = conditions: read-out: IC50 for PDE3A

Compound: COc1ccc(Cc2nccc3cc(OC)c(OC)cc23)cc1OC [Papaverine, 1-(3,4-dimethoxybenzyl)-6,7-dimethoxyisoquinoline]
- IC50 (PDE4D): 320 nM
- Biological half-life in rat plasma: 15 min
- IC50 (PDE3A): 1300 nM
